The test addresses T1, CRF1 receptors (Homo sapiens, UniProt P34998).
T1 construct: endogenous in cells; host or cells: IMR-32 cells, transformed with 2.5 µM 5'-bromo-2'-deoxyuridine for 10 days; membrane preparation
T1 sequence (P34998 24-415): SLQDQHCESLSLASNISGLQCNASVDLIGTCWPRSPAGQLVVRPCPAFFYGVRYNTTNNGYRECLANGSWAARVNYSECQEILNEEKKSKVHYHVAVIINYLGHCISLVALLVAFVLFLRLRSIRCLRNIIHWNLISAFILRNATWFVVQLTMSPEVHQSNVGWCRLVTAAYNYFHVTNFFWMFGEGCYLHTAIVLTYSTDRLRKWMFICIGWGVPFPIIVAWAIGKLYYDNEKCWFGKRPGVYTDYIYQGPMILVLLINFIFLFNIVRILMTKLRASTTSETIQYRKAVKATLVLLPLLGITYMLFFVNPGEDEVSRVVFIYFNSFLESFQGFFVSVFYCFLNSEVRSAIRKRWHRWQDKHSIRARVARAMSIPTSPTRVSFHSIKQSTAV
Put plainly: CRF1 receptor radioligand binding assay ([125I]-oCRF competition, IMR-32 cell membranes). As to conditions: IMR-32 cell membranes, [125I]-oCRF 100 pM; read-out: Ki (CRF-1R). The method, boiled down:
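Buffer: Tris pH 7.2 with MgCl2, BSA, Triton X-100, aprotinin, leupeptin; reaction stopped with ice-cold wash and filtered. Nonspecific binding set with 10 μM oCRF.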
In general, Ki refers to the dissociation constant of the complex between target and ligand, obtained from inhibition or displacement. For the molecule `CCCN(Cc1c(C(F)(F)F)nc2n(-c3c(C)cc(C)cc3C)c(Cl)cn12)CC(F)(F)F` [Example 322, [6-Chloro-2-trifluoromethyl-7-(2,4,6-trimethyl-phenyl)-7H-imidazo[1,2-a]imidazol-3-ylmethyl]-propyl-(2,2,2-trifluoro-ethyl)-amine], the Ki was less than 10 nM.

With `CCCN(CC1CCC1)C(=O)c1c(CC)nc2n1CCN2c1c(C)cc(C)cc1Br` [Example 42, 7-(2-Bromo-4,6-dimethyl-phenyl)-2-ethyl-6,7-dihydro-5H imidazo[1,2-a]imidazole-3-carboxylic acid cyclobutylmethyl-propyl-amide], the Ki was less than 1000 nM.

Consider `CCN(Cc1ccccc1)Cc1c(C(F)(F)F)nc2n(-c3c(C)cc(C)cc3C)c3ncccc3n12` [Example 233, Benzyl-ethyl-[2-trifluoromethyl-8-(2,4,6-trimethyl-phenyl)-8H-1,3a,7,8-tetraaza-cyclopenta[α]inden-3-ylmethyl]-amine], for which the inhibitory constant (Ki) is less than 10000 nM.

For `CCCN(CCc1ccccc1)C(=O)c1c(C)nc2n1CCCN2c1c(C)cc(C)cc1C` [Example 56, 2-Methyl-8-(2,4,6-trimethyl-phenyl)-5,6,7,8-tetrahydro-imidazo[1,2-a]pyrimidine-3-carboxylic acid phenethyl-propyl-amide], the Ki was less than 10000 nM.

Regarding `CCCN(CC1CC1)C(=O)c1c(CC)nc2n1CCN2c1c(C)cc(C)cc1Cl` [Example 28, 7-(2-Chloro-4,6-dimethyl-phenyl)-2-ethyl-6,7-dihydro-5H-imidazo[1,2-a]imidazole-3-carboxylic acid cyclopropylmethyl-propyl-amide], the Ki was less than 100 nM.

`CCN(Cc1c(C(F)(F)F)nc2n(-c3c(C)cc(C)cc3C)c(Cl)cn12)CC1CCC1` [Example 341, [6-Chloro-2-trifluoromethyl-7-(2,4,6-trimethyl-phenyl)-7H-imidazo[1,2-a]imidazol-3-ylmethyl]-cyclobutylmethyl-ethyl-amine]: the Ki was less than 10 nM.

For `CCc1nc2n(c1C(=O)N(CC1CC1)CC(F)(F)F)CCN2c1c(C)cc(C)cc1Cl` [Example 27, 7-(2-Chloro-4,6-dimethyl-phenyl)-2-ethyl-6,7-dihydro-5H-imidazo[1,2-a]imidazole-3-carboxylic acid cyclopropylmethyl-(2,2,2-trifluoro-ethyl)-amide], the inhibition constant (Ki) was less than 100 nM.

Turning to `CCCN(Cc1cccc(F)c1)C(=O)c1c(CC)nc2n1CCN2c1c(C)cc(C)cc1C` [Example 26, 2-Ethyl-7-(2,4,6-trimethyl-phenyl)-6,7-dihydro-5H-imidazo[1,2-a]imidazole-3-carboxylic acid (3-fluoro-benzyl)-propyl-amide], the Ki is less than 10000 nM.

Consider `CCN(Cc1ccccc1)Cc1c(C(F)(F)F)nc2n(-c3c(C)cc(C)cc3C)c3ccccc3n12` [Example 173, Benzyl-ethyl-[2-trifluoromethyl-8-(2,4,6-trimethyl-phenyl)-8H-1,3a,8-triaza-cyclopenta[α]inden-3-ylmethyl]-amine], for which the Ki is less than 10000 nM.

Take `CCc1nc2n(-c3c(C)cc(C)cc3C)c(Cl)cn2c1C(=O)N1CC(C)CC(C)C1` (stereo not drawn) [Example 300]: the Ki is less than 100 nM.

On to `Cc1cc(C)c(-n2c3ncccc3n3c(CN(CCC4CC4)CC(F)(F)F)c(C(F)(F)F)nc23)c(C)c1` [Example 232, (2-Cyclopropyl-ethyl)-(2,2,2-trifluoro-ethyl)-[2-trifluoromethyl-8-(2,4,6-trimethyl-phenyl)-8H-1,3a,7,8-tetraaza-cyclopenta[α]inden-3-ylmethyl]-amine], for which the Ki is less than 1000 nM.

For the molecule `Cc1cc(C)c(-n2c3ncccc3n3c(CN(CCc4ccccc4)CC(F)(F)F)c(C(F)(F)F)nc23)c(C)c1` [Example 234, Phenethyl-(2,2,2-trifluoro-ethyl)-[2-trifluoromethyl-8-(2,4,6-trimethyl-phenyl)-8H-1,3a,7,8-tetraaza-cyclopenta[α]inden-3-ylmethyl]-amine], the Ki is less than 10000 nM.

For the origin of these results see patent US7125990B2, “Imidazolyl derivatives as corticotropin releasing factor inhibitors” (Bristol-Myers Squibb COmpany, priority 2001, dated 2006).
